Tests used:
[1] = system: HEK293/API2-MALT1/NF-κB reporter cells; assay: Inhibition of reporter activity in HEK293/API2-MALT1/NF-κB reporter cells; type: cell-based; settings: Homo sapiens, 24 hours with test substance, One-glo luminescence
Method: The API2-MALT1 fusion protein, expressed in MALT lymphoma, is known to constitutively activate the NF-κB pathway. To evaluate the inhibitory effect of the test substance on the NF-κB pathway in cells, a reporter activity inhibition test was conducted using HEK293/API2-MALT1/NF-κB reporter cells.
(§1) The test substance was prepared at a concentration of 10 mM in dimethyl sulfoxide (DMSO) and further diluted with DMSO to each of concentrations of 1000, 300, 100, and 10 µM. The solutions were further diluted 100-fold with DMEM medium containing 10% FBS to prepare test substance solutions.
HEK293/API2-MALT1/NF-κB reporter cells and 293T/CMV reporter cells (used as a negative control) were cultured in DMEM medium containing 10% FBS. Into a 384-well plate (#781080, Greiner), 6,000 cells were seeded in 30 µL per well, and after culturing for 24 hours, 3.3 µL of the adjusted test substance solution was added thereto (final concentrations: 10,000, 1,000, 100, and 10 nM). After culturing for 24 hours at 37°C in a 5% CO2 incubator, 33 µL of One-glo (Promega) was added to each well. After a 5-minute incubation at room temperature, luminescence was detected using a microplate reader (EnVision, PerkinElmer).
Using the measurement data, non-linear regression analysis was performed with the SAS system (SAS Institute Inc.) to estimate IC50.

[2] = Central nervous system (CNS) penetration study in mice; type: in vivo; settings: female, BALB/cCrSlc, mouse, ip, 30 mg/kg intraperitoneally, three hours later, cerebrum and plasma by LC-MS/MS, read-out: Brain-to-plasma concentration ratio (Kp value)
Method: To evaluate the central nervous system (CNS) penetration of a test substance, a central nervous system penetration study was conducted using mice.
Six-week-old female BALB/cCrSlc mice (Japan SLC) were used. The test substance suspended in 0.5% methylcellulose was intraperitoneally administered to mice at a dose of 30 mg/kg. Three hours later, blood was collected from the abdominal vena cava under isoflurane anesthesia, and plasma was obtained by centrifugation. After exsanguination from the abdominal vena cava, the cerebrum was collected.
The drug concentrations of the collected plasma and cerebrum were measured by LC-MS/MS. To determine the brain penetration of the drug, the brain-to-plasma concentration ratio (Kp value) was calculated.

OCI-Ly3 cell lines = assay: Proliferation inhibition test, ABC-DLBCL cell line OCI-Ly3; type: cell-based; settings: Homo sapiens; OCI-Ly3 (ABC-DLBCL, NF-κB pathway-dependent); 96 hours; Cell Counting Kit-8; read-out: Proliferation inhibitory activity against OCI-Ly3 IC50
Method: (§2) In ABC-DLBCL cell lines, the NF-κB pathway is constitutively activated due to mutations in the B-cell receptor pathway. To evaluate the proliferation inhibitory activity associated with the MALT1 inhibitory activity of the test substance, a proliferation inhibition test was conducted using ABC-DLBCL cell lines.
as §1, with “3,000, 1,000,” for “1000,”, “100, 30,” for “100,”, “IMDM” for “DMEM”
(§3) OCI-Ly3 cell lines (ABC-DLBCL, NF-κB pathway-dependent) were cultured in IMDM containing 10% FBS, and SU-DHL-4 cell lines (GCB-DLBCL, NF-κB pathway-independent, used as a negative control) were cultured in RPMI-1640 containing 10% FBS. Into a 96-well plate, 2,000 cells of the OCI-Ly3 cell line and 4,000 cells of the SU-DHL-4 cell line were seeded in 100 µL per well, and 11 µL of the adjusted test substance solution was added thereto (final concentrations: 10,000, 3,000, 1,000, 300, 100, 30, and 10 nM). After 96 hours of incubation at 37°C in a 5% CO2 incubator, 10 µL of Cell Counting Kit-8 (Dojindo Laboratories) was added to each well. After 4 hours of incubation at 37°C, absorbance at 450 nm was detected using a microplate reader (EnVision, PerkinElmer).
(§4) Using the measurement data, non-linear regression analysis based on a 2-parameter logistic model was performed with Spotfire (PerkinElmer) to estimate IC50 values.

[3] = target: T1, C-terminal catalytic domain of MALT1 (amino acid residues 329-824) (Homo sapiens, UniProt Q9UDY8); assay: MALT1 protease inhibitory activity (enzyme activity inhibition assay, fluorogenic substrate); type: biochemical; settings: substrate Ac-Leu-Arg-Ser-Arg-AMC 50 µM; 30°C for 2 hours; fluorescence
T1 construct: C-terminal catalytic domain of MALT1 (amino acid residues 329-824)
T1 sequence (Q9UDY8 329-824): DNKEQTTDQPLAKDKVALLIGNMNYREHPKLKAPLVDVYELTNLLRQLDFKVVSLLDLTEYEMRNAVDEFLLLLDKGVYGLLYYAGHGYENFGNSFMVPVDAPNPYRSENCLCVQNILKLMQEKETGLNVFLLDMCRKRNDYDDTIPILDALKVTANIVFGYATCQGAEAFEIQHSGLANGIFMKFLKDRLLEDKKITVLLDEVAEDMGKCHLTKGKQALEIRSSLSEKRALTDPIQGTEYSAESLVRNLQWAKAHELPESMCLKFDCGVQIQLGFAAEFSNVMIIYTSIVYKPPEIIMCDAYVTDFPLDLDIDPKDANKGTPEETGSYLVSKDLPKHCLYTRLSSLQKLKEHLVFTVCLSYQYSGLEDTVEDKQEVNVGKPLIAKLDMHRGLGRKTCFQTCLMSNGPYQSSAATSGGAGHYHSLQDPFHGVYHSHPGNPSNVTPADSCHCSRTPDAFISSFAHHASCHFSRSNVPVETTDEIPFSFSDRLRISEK
Method: To evaluate the enzyme inhibitory activity of a test substance against MALT1, an enzyme activity inhibition assay was conducted using the C-terminal catalytic domain of MALT1 (amino acid residues 329-824).
A test substance was prepared at a concentration of 10 mM in dimethyl sulfoxide (DMSO) and further diluted with DMSO to obtain final concentrations of 1000, 100, 10, 1, and 0.1 µM. The solutions were further diluted 25-fold with an assay buffer to prepare final test substance solutions. The composition of the assay buffer was 200 mM Tris/HCl HEPES (pH 7.5), 0.8 M Na citrate, 100 µM DTT, and 0.05% CHAPS.
The test substance solution was added to a 384-well black plate (#6007270, PerkinElmer) in an amount of 5 µL per well (n = 2; final concentrations of 10000, 1000, 100, 10, 1, and 0.1 nM), followed by the addition of 10 µL of MALT1 enzyme and finally 5 µL of a substrate solution (Ac-Leu-Arg-Ser-Arg-AMC, Peptide Institute, Inc.; final concentration in the reaction mixture: 50 µM), and after stirring, the mixture was allowed to react at 30°C for 2 hours. Fluorescence (excitation: 380 nm, emission: 460 nm) was detected using a microplate reader (EnVision, PerkinElmer).
Using the measurement data, non-linear regression analysis based on a 2-parameter logistic model was performed with Spotfire (PerkinElmer) to calculate IC50.

SU-DHL-4 cell lines = assay: Proliferation inhibition test, GCB-DLBCL cell line SU-DHL-4 (negative control line); type: cell-based; settings: Homo sapiens; SU-DHL-4 (GCB-DLBCL, NF-κB pathway-independent, negative control); 96 hours; Cell Counting Kit-8; read-out: Proliferation inhibitory activity against SU-DHL-4 IC50
Method: as §2
as §1, with “3,000, 1,000,” for “1000,”, “100, 30,” for “100,”, “IMDM” for “DMEM”
as §3, §4

Compound	Kp at 3 h [2]	IC50 (OCI-Ly3 cell lines) [nM]	IC50 [3] [nM]	IC50 (SU-DHL-4 cell lines) [nM]	IC50 [1] [nM]
C[C@@H]1CC(C(=O)c2cn(C3COC3)c3nc(-c4ncccn4)c(Cl)cc23)C[C@@H](C)N1c1ncc(F)cc1I (stereo partly drawn) [Example 10, [5-chloro-1-(oxetan-3-yl)-6-(pyrimidin-2-yl)-1H-pyrrolo[2,3-b]pyridin-3-yl][(2R,6R)-1-(5-fluoro-3-iodopyridin-2-yl)-2,6-dimethylpiperidin-4-yl]methanone]	1.7	440	67	6000	140
CCn1cc(C(=O)C2C[C@@H](C)N(c3ncc(F)cc3I)[C@H](C)C2)c2cc(Cl)c(-n3nccn3)nc21 (stereo partly drawn) [Example 14, [5-chloro-1-ethyl-6-(2H-1,2,3-triazol-2-yl)-1H-pyrrolo[2,3-b]pyridin-3-yl][(2R,6R)-1-(5-fluoro-3-iodopyridin-2-yl)-2,6-dimethylpiperidin-4-yl]methanone]	0.74	470	58	8500	70
C[C@@H]1CC(C(=O)c2cn(C3CC3)c3nc(-n4nccn4)c(Cl)cc23)C[C@@H](C)N1c1ncc(F)cc1I (stereo partly drawn) [Example 16, [5-chloro-1-cyclopropyl-6-(2H-1,2,3-triazol-2-yl)-1H-pyrrolo[2,3-b]pyridin-3-yl][(2R,6R)-1-(5-fluoro-3-iodopyridin-2-yl)-2,6-dimethylpiperidin-4-yl]methanone]	0.28	720	310	9700	–
C[C@@H]1C[C@H](C(=O)c2c[nH]c3nc(C(=O)N4CCNCC4)c(Cl)cc23)CCN1c1ncc(F)cc1Cl (racemic) [Example 35, {5-chloro-3-[(2RS,4RS)-1-(3-chloro-5-fluoropyridin-2-yl)-2-methylpiperidine-4-carbonyl]-1H-pyrrolo[2,3-b]pyridin-6-yl}(piperazin-1-yl)methanone]	–	630	37	9500	390
Cn1cc(C(=O)c2cnn(-c3ccnc4sccc34)c2C(F)(F)F)c2cc(Cl)c(-n3nccn3)nc21 [Example 24, [5-chloro-1-methyl-6-(2H-1,2,3-triazol-2-yl)-1H-pyrrolo[2,3-b]pyridin-3-yl][1-(thieno[2,3-b]pyridin-4-yl)-5-(trifluoromethyl)-1H-pyrazol-4-yl]methanone]	–	180	12	9100	130
C[C@@H]1CC(C(=O)c2cn([C@H]3CCOC3)c3nc(-n4nccn4)c(Cl)cc23)C[C@@H](C)N1c1ncc(F)cc1I (stereo partly drawn) [Example 21, {5-chloro-1-[(3S)-oxolan-3-yl]-6-(2H-1,2,3-triazol-2-yl)-1H-pyrrolo[2,3-b]pyridin-3-yl}[(2R,6R)-1-(5-fluoro-3-iodopyridin-2-yl)-2,6-dimethylpiperidin-4-yl]methanone]	–	540	44	9000	310
CCn1cc(C(=O)c2cnn(-c3cncc4c(F)cccc34)c2C(F)(F)F)c2cc(Cl)c(-c3ncccn3)nc21 [Example 13, [5-chloro-1-ethyl-6-(pyrimidin-2-yl)-1H-pyrrolo[2,3-b]pyridin-3-yl][1-(8-fluoroisoquinolin-4-yl)-5-(trifluoromethyl)-1H-pyrazol-4-yl]methanone]	–	110	15	2000	62

Second part, led by results:

Kp at 3 h [2]	IC50 (OCI-Ly3 cell lines) [nM]	IC50 [3] [nM]	IC50 (SU-DHL-4 cell lines) [nM]	Compound	IC50 [1] [nM]
0.52	130	25	3200	CCn1cc(C(=O)c2cnn(-c3cncc4c(F)cccc34)c2C(F)(F)F)c2cc(Cl)c(-n3nccn3)nc21 [Example 7, [5-chloro-1-ethyl-6-(2H-1,2,3-triazol-2-yl)-1H-pyrrolo[2,3-b]pyridin-3-yl][1-(8-fluoroisoquinolin-4-yl)-5-(trifluoromethyl)-1H-pyrazol-4-yl]methanone]	150
3	290	54	8900	C[C@@H]1CC(C(=O)c2cn(C)c3nc(-c4ncccn4)c(Cl)cc23)C[C@@H](C)N1c1ncc(F)cc1I (stereo partly drawn) [Example 11, [5-chloro-1-methyl-6-(pyrimidin-2-yl)-1H-pyrrolo[2,3-b]pyridin-3-yl][(2R,6R)-1-(5-fluoro-3-iodopyridin-2-yl)-2,6-dimethylpiperidin-4-yl]methanone]	230
–	150	25	> 10000	Cn1cc(C(=O)c2cnn(-c3cccn4c(=O)cccc34)c2C(F)(F)F)c2cc(Cl)c(-n3nccn3)nc21 [Example 31, 9-{4-[5-chloro-1-methyl-6-(2H-1,2,3-triazol-2-yl)-1H-pyrrolo[2,3-b]pyridine-3-carbonyl]-5-(trifluoromethyl)-1H-pyrazol-1-yl}-4H-quinolizin-4-one]	73
–	380	5.8	7200	Cn1cc(C(=O)c2cnn(-c3cccn4nccc34)c2C(F)(F)F)c2cc(Cl)c(-n3nccn3)nc21 [Example 27, [5-chloro-1-methyl-6-(2H-1,2,3-triazol-2-yl)-1H-pyrrolo[2,3-b]pyridin-3-yl][1-(pyrazolo[1,5-a]pyridin-4-yl)-5-(trifluoromethyl)-1H-pyrazol-4-yl]methanone]	280

From patent EP4772507A1, “AZAINDOLE COMPOUND AND MEDICAL DRUG” (Nippon Shinyaku Co., Ltd., priority 2023, dated 2025)
